Data as given in the NIST ThermoML archive (doi:10.1021/acs.jced.7b01030).
Several values for one entry are separate records, joined by “and”; a condition that tells them apart may be missing. Equal values may be shown once.

Conditions: Liquid; for mass density: Vibrating tube method; for viscosity: Falling or rolling sphere viscometry; for self diffusion coefficient: NMR spin-echo technique

OCC(F)(F)F [2,2,2-trifluoroethanol]
Conditions	mass density [kg/m3]	self diffusion coefficient	viscosity
303.15 K, 100 kPa	1374.17	–	–
308.15 K, 100 kPa	–	–	1.384 mPa·s
308.28 K, 100 kPa	–	9.35e-10 m2/s	–
313.15 K, 100 kPa	1356.64	–	1.219 mPa·s and 1.221 mPa·s
318.15 K, 100 kPa	–	–	1.081 mPa·s and 1.078 mPa·s
318.17 K, 100 kPa	–	1.24e-09 m2/s and 1.22e-09 m2/s	–
322.14 K, 10500 kPa	–	–	1.125 mPa·s and 1.128 mPa·s
322.14 K, 25500 kPa	–	–	1.286 mPa·s
322.14 K, 50500 kPa	–	–	1.561 mPa·s
322.14 K, 75000 kPa	–	–	1.827 mPa·s
322.14 K, 75200 kPa	–	–	1.828 mPa·s
322.14 K, 100300 kPa	–	–	2.137 mPa·s
323.15 K, 100 kPa	1338.58	–	0.989 mPa·s [middle of 9 runs]
323.15 K, 10000 kPa	–	–	1.091 mPa·s
323.15 K, 10100 kPa	–	–	1.09 mPa·s
323.15 K, 25300 kPa	–	–	1.246 mPa·s
323.15 K, 25400 kPa	–	–	1.248 mPa·s
323.15 K, 49500 kPa	–	–	1.492 mPa·s
323.15 K, 49700 kPa	–	–	1.493 mPa·s
323.15 K, 74800 kPa	–	–	1.781 mPa·s
323.15 K, 75000 kPa	–	–	1.789 mPa·s
323.15 K, 99900 kPa	–	–	2.075 mPa·s
323.15 K, 100000 kPa	–	–	2.073 mPa·s
323.15 K, 100400 kPa	–	–	2.096 mPa·s and 2.093 mPa·s
323.15 K, 125000 kPa	–	–	2.396 mPa·s
323.15 K, 125400 kPa	–	–	2.395 mPa·s
323.15 K, 150100 kPa	–	–	2.737 mPa·s
323.15 K, 150500 kPa	–	–	2.738 mPa·s
323.15 K, 176000 kPa	–	–	3.131 mPa·s
323.15 K, 200300 kPa	–	–	3.654 mPa·s
323.15 K, 200800 kPa	–	–	3.651 mPa·s
323.15 K, 210100 kPa	–	–	3.837 mPa·s and 3.849 mPa·s
323.15 K, 225200 kPa	–	–	4.134 mPa·s
323.15 K, 225300 kPa	–	–	4.131 mPa·s
323.15 K, 226700 kPa	–	–	4.028 mPa·s
323.15 K, 227900 kPa	–	–	4.058 mPa·s
323.15 K, 248900 kPa	–	–	4.6 mPa·s
323.15 K, 249400 kPa	–	–	4.614 mPa·s
323.15 K, 275300 kPa	–	–	5.192 mPa·s
323.15 K, 275600 kPa	–	–	5.209 mPa·s
323.15 K, 300600 kPa	–	–	5.834 mPa·s
323.15 K, 301200 kPa	–	–	5.853 mPa·s
323.15 K, 325600 kPa	–	–	6.509 mPa·s
323.15 K, 326200 kPa	–	–	6.562 mPa·s
323.15 K, 347900 kPa	–	–	7.187 mPa·s
323.15 K, 349200 kPa	–	–	7.207 mPa·s
323.4 K, 100 kPa	–	1.45e-09 m2/s	–
323.5 K, 100 kPa	–	1.39e-09 m2/s	–
323.51 K, 100 kPa	–	1.42e-09 m2/s	–
323.51 K, 23000 kPa	–	1.21e-09 m2/s	–
323.51 K, 50000 kPa	–	1.01e-09 m2/s	–
323.51 K, 74000 kPa	–	8.73e-10 m2/s	–
323.51 K, 99500 kPa	–	7.59e-10 m2/s	–
323.51 K, 300000 kPa	–	3.12e-10 m2/s	–
323.52 K, 150000 kPa	–	5.97e-10 m2/s	–
323.52 K, 198500 kPa	–	4.81e-10 m2/s	–
323.52 K, 249000 kPa	–	3.9e-10 m2/s	–
323.53 K, 351000 kPa	–	2.57e-10 m2/s	–
328.15 K, 100 kPa	–	–	0.8939 mPa·s and 0.8974 mPa·s
328.35 K, 100 kPa	–	1.63e-09 m2/s	–
333.15 K, 100 kPa	1319.81	–	0.8117 mPa·s
338.15 K, 100 kPa	1310.14	–	0.7379 mPa·s and 0.7382 mPa·s
338.44 K, 100 kPa	–	1.95e-09 m2/s	–
342.8 K, 100 kPa	–	2.21e-09 m2/s	–
343.15 K, 100 kPa	1300.26	–	0.671 mPa·s [middle of 5 runs]
343.15 K, 10500 kPa	–	–	0.7504 mPa·s and 0.7498 mPa·s
343.15 K, 25500 kPa	–	–	0.8438 mPa·s
343.15 K, 50000 kPa	–	–	1.016 mPa·s
343.15 K, 76400 kPa	–	–	1.229 mPa·s and 1.228 mPa·s
343.15 K, 99900 kPa	–	–	1.425 mPa·s
343.15 K, 100500 kPa	–	–	1.411 mPa·s
343.15 K, 100700 kPa	–	–	1.419 mPa·s and 1.416 mPa·s
343.15 K, 100900 kPa	–	–	1.421 mPa·s
343.15 K, 125800 kPa	–	–	1.666 mPa·s
343.15 K, 126100 kPa	–	–	1.66 mPa·s
343.15 K, 150000 kPa	–	–	1.894 mPa·s
343.15 K, 150200 kPa	–	–	1.899 mPa·s
343.15 K, 175300 kPa	–	–	2.141 mPa·s
343.15 K, 175600 kPa	–	–	2.149 mPa·s
343.15 K, 200400 kPa	–	–	2.397 mPa·s
343.15 K, 200700 kPa	–	–	2.409 mPa·s
343.15 K, 225200 kPa	–	–	2.644 mPa·s
343.15 K, 225400 kPa	–	–	2.672 mPa·s
343.15 K, 249500 kPa	–	–	2.924 mPa·s
343.15 K, 249800 kPa	–	–	2.935 mPa·s
343.15 K, 276600 kPa	–	–	3.259 mPa·s
343.15 K, 277100 kPa	–	–	3.277 mPa·s
343.15 K, 300300 kPa	–	–	3.57 mPa·s
343.15 K, 301200 kPa	–	–	3.596 mPa·s
343.15 K, 325100 kPa	–	–	3.91 mPa·s
343.15 K, 325600 kPa	–	–	3.939 mPa·s
343.15 K, 350100 kPa	–	–	4.306 mPa·s
343.15 K, 352100 kPa	–	–	4.376 mPa·s
348.02 K, 152000 kPa	–	1.06e-09 m2/s	–
348.06 K, 25000 kPa	–	2.11e-09 m2/s	–
348.06 K, 101000 kPa	–	1.35e-09 m2/s	–
348.07 K, 100 kPa	–	2.57e-09 m2/s	–
348.07 K, 50500 kPa	–	1.79e-09 m2/s	–
348.07 K, 74500 kPa	–	1.57e-09 m2/s	–
348.07 K, 348000 kPa	–	5.2e-10 m2/s	–
348.08 K, 175000 kPa	–	9.55e-10 m2/s	–
348.08 K, 200000 kPa	–	8.68e-10 m2/s	–
348.08 K, 249500 kPa	–	7.32e-10 m2/s	–
348.08 K, 299000 kPa	–	6.15e-10 m2/s	–
348.08 K, 350000 kPa	–	5.16e-10 m2/s	–
